{
  "source": "patent US6461866B1",
  "about": "“In vitro photodynamic therapy using non laser light” (Photo Therapeutics Limited, priority 1992, dated 2002)",
  "test_system": "Chinese hamster ovary (CHO) cells",
  "assay": "In vitro PDT: survival of CHO cells incubated with HpD after irradiation",
  "format": "cell-based",
  "procedure": "In vitro work carried out using Chinese hamster ovary (CHO) cells incubated with […] HpD for 24 hours. Irradiation was centered on 630±12 nm for three light sources, namely a high intensity continuous wave (CW) lamp (non-laser light source in accordance with the present invention using 300 W Xenon lamp), secondly a continuous wave 20 W argon ion pumped dye laser and pulsed 10 W copper vapour pumped dye laser, all with fibre delivery. Light doses ranged from 0 to 2.5 J/cm^2 with light fluences ranging from 20 to 200 mW/cm^2. A light only control was taken at 275 mW/cm^2 for energy doses of 0 to 100 J/cm^2. Following irradiation, cells were plated out, stained and counted for survival.\nFIGS. 2a, 2b, 2c show photosensitiser (HpD) absorption spectrum, cell kill efficacy spectrum and overlapping HpD/lamp spectra. PBS refers to phosphate buffered saline; S.F. means survival fraction.\nFIGS. 3a, 3b show cell survival curves obtained at 20 & 50 mW/cm^2 respectively with highest kill efficiency achieved by the argon ion laser, followed by the copper vapour laser. The lamp kill efficiency of the light source in accordance with the present invention, though similar to the lasers (approx 70%) would be increased by reducing its emission bandwidth from 30 nm.",
  "data": [
    {"substance": "haematoporhyrin derivative [HpD]", "values": [
      {"measurement": "lamp kill efficiency (cell survival curves)", "setting": "CHO cells, 10 pg/ml HpD for 24 hours, 300 W Xenon lamp at 630±12 nm, 20 & 50 mW/cm^2, similar to the lasers", "value": "approx 70%"},
      {"measurement": "photo-inactivation of cancerous CHO cells in vitro", "setting": "HpD with impinging visible light at 630±12 nm from the non-laser light source", "value": "proven photo-inactivation"}
    ]}
  ]
}
